Values quoted from earlier work in paper PMC8468386, “Rapid Identification of Potential Drug Candidates from Multi-Million Compounds’ Repositories. Combination of 2D Similarity Search with 3D Ligand/Structure Based Methods and In Vitro Screening” (Molecules, 2021).
pIC50: −log10 of the molar value.

Tested on: PDE5
Parameters: method as in PMID 21947759
Conditions: PDE5 inhibitor first round hit compounds

| SMILES | pIC50 |
| --- | --- |
| CCc1ccccc1OCc1nc2ccc(S(=O)(=O)N3CCOCC3)cc2[nH]1 [compound 1] | 5.44 |
| Cn1c(=O)c2c(nc(Oc3cccc(C=NO)c3)n2Cc2ccccc2Cl)n(C)c1=O [compound 2] | 5.70 |

The next lines start with the values.

| pIC50 | SMILES |
| --- | --- |
| 6.72 | COC(=O)c1sccc1NC(=O)N1CCc2c([nH]c3ccccc23)C1c1ccc(OC)cc1 (stereo not drawn) [compound 4] |
| 5.17 | COc1ccc(C2c3c(n(C)c4ccccc34)C(=O)N2CC(=O)N2CCN(c3ncccn3)CC2)cc1 (stereo not drawn) [compound 5] |

Tested on: Complement Component C1s
Parameters: method as in PMID 31600984
Conditions: C1s inhibitors

| pIC50 | SMILES |
| --- | --- |
| 6.26 | Cc1sc2nc(-c3ccco3)oc(=O)c2c1C [#17] |
| 6.62 | O=c1nc(-c2cccs2)oc2cc(Cl)ccc12 [#21] |
